What was measured:
[1] = tested on: SMN2 minigene mRNA (SMN2-A minigene) in HEK293H cells; experiment: SMN2 minigene mRNA splicing RT-qPCR assay in cultured cells; assay type: cell-based, human; details: Homo sapiens, HEK293-H; concentration increasing full length SMN2 mRNA 1.5-fold relative to vehicle-treated cells; HEK293H cells with SMN2-A minigene, 24 hours, 7-point concentration data; read-out: EC1.5x for production of full length SMN2 mRNA
Protocol: The reverse transcription-quantitative PCR-based (RT-qPCR) assay is used to quantify the level of the full length SMN2 minigene mRNA containing SMN2 exon 7 in a HEK293H cell line stably transfected with said minigene and treated with a test compound.
Protocol. HEK293H cells stably transfected with the SMN2-A minigene construct described above (10,000 cells/well) are seeded in 200 μL of cell culture medium (DMEM plus 10% FBS, with 200 μg/mL hygromycin) in 96-well flat-bottom plates and the plate is immediately swirled to ensure proper dispersal of cells, forming an even monolayer of cells. Cells are allowed to attach for at least 4-6 hours. Test compounds are serially diluted 3.16-fold in 100% DMSO to generate a 7-point concentration curve. A solution of test compound (1 μL, 200× in DMSO) is added to each cell-containing well and the plate is incubated for 24 hours in a cell culture incubator (37° C., 5% CO2, 100% relative humidity). 2 replicates are prepared for each test compound concentration. The cells are then lysed in Cells-To-Ct lysis buffer and the lysate is stored at −80° C.
Primer SMN Forward A (SEQ ID NO. 1) hybridizes to a nucleotide sequence in exon 7 (nucleotide 22 to nucleotide 40), primer SMN Reverse A (SEQ ID NO. 2) hybridizes to a nucleotide sequence in the coding sequence of Firefly luciferase, SMN Probe A (SEQ ID NO. 3) hybridizes to a nucleotide sequence in exon 7 (nucleotide 50 to nucleotide 54) and exon 8 (nucleotide 1 to nucleotide 21). The combination of these three oligonucleotides detects only SMN1 or SMN2 minigenes (RT-qPCR) and will not detect endogenous SMN1 or SMN2 genes.
The SMN forward and reverse primers are used at final concentrations of 0.4 μM. The SMN probe is used at a final concentration of 0.15 μM. The GAPDH primers are used at final concentrations of 0.2 μM and the probe at 0.15 μM.
The SMN2-minigene GAPDH mix (15 μL total volume) is prepared by combining 7.5 μL of 2× RT-PCR buffer, 0.4 μL of 25× RT-PCR enzyme mix, 0.75 μL of 20× GAPDH primer-probe mix, 4.0075 μL of water, 2 μL of 10-fold diluted cell lysate, 0.06 μL of 100 μM SMN forward primer, 0.06 μL of 100 μM SMN reverse primer, and […].
PCR is carried out at the following temperatures for the indicated time: Step 1: 48° C. (15 min); Step 2: 95° C. (10 min); Step 3: 95° C. (15 sec); Step 4: 60° C. (1 min); then repeat Steps 3 and 4 for a total of 40 cycles.
Each reaction mixture contains both SMN2-A minigene and GAPDH primers/probe sets (multiplex design), allowing simultaneous measurement of the levels of two transcripts.
Two SMN spliced products are generated from the SMN2 minigene. The first spliced product containing exon 7, corresponding to full length SMN2 mRNA, is referred to herein using the term “SMN2 minigene FL.” The second spliced product lacking exon 7 is referred to herein using the term “SMN2 minigene Δ7.”
The increase of SMN2 minigene FL mRNA relative to that in cells treated with vehicle control is determined from real-time PCR data using a modified ΔΔCt method (as described in Livak and Schmittgen, Methods, 2001, 25:402-8). The amplification efficiency (E) is calculated from the slope of the amplification curve for SMN2 minigene FL and GAPDH individually. The abundances of SMN2 minigene FL and GAPDH are then calculated as (1+E)^−Ct, where Ct is the threshold value for each amplicon. The abundance of SMN2 minigene FL is normalized to GAPDH abundance. The normalized SMN2 minigene FL abundance from test compound-treated samples is then divided by normalized SMN2 minigene FL abundance from vehicle-treated cells to determine the level of SMN2 FL mRNA relative to vehicle control.
For compounds of Formula (I) or a form thereof disclosed herein, Table 4 provides the […] for production of full length SMN2 mRNA that was obtained from the 7-point concentration data generated for each test compound according to the procedure of Biological Example 2. […]

[2] = tested on: Smn protein in SMA patient fibroblast cells (GM03813); experiment: Smn protein assay in cultured cells (SMN HTRF); assay type: cell-based, human; details: SMA patient fibroblast cells, 48 hours; for EC1.5x for Smn protein expression: 7-point concentration curve, SMN HTRF, concentration producing 1.5 times Smn protein vs DMSO vehicle control; for maximum fold (Fold) increase of Smn protein: 7-point concentration data, fold relative to vehicle control
Protocol: The SMN HTRF (homogeneous time resolved fluorescence) assay is used to quantify the level of Smn protein in SMA patient fibroblast cells treated with test compounds.
Protocol. Cells are thawed and cultured in DMEM-10% FBS for 72 hours. Cells are trypsinized, counted and re-suspended to a concentration of 25,000 cells/mL in DMEM-10% FBS. The cell suspension is plated at 5,000 cells per well in a 96 well microtiter plate and incubated for 3 to 5 hours. […] Test compounds are serially diluted 3.16-fold in 100% DMSO to generate a 7-point concentration curve. 1 μL of test compound solution is transferred to cell-containing wells and cells are incubated for 48 hours in a cell culture incubator (37° C., 5% CO2, 100% relative humidity). Triplicate samples are set up for each test compound concentration. After 48 hours, the supernatant is removed from the wells and 25 μL of the RIPA lysis buffer, containing protease inhibitors, is added to the wells and incubated with shaking at room temperature for 1 hour. 25 μL of the diluent is added and then 35 μL of the resulting lysate is transferred to a 384-well plate, where each well contains 5 μL of the antibody solution (1:100 dilution of anti-SMN d2 and anti-SMN kryptate in SMN reconstitution buffer). The plate is centrifuged for 1 minute to bring the solution to the bottom of the wells, then incubated overnight at room temperature. Fluorescence for each well of the plate at 665 nm and 620 nm is measured on an EnVision multilabel plate reader (Perkin-Elmer).
The normalized fluorescence signal is calculated for each sample, Blank and vehicle control well by dividing the signal at 665 nm by the signal at 620 nm. Normalizing the signal accounts for possible fluorescence quenching due to the matrix effect of the lysate. The ΔF value (a measurement of Smn protein abundance as a percent value) for each sample well is calculated by subtracting the normalized average fluorescence for the Blank control wells from the normalized fluorescence for each sample well, then dividing this difference by the normalized average fluorescence for the Blank control wells and multiplying the resulting value by 100. The ΔF value for each sample well represents the Smn protein abundance from test compound-treated samples. The ΔF value for each sample well is divided by the ΔF value for the vehicle control wells to calculate the fold increase in Smn protein abundance relative to the vehicle control.
For compounds of Formula (I) or a form thereof disclosed herein, Table 9 provides the EC1.5× for Smn protein expression that was obtained from the 7-point concentration data generated for each test compound according to the procedure of Biological Example 7. The term “EC1.5× for Smn protein expression” is defined as that concentration of test compound that is effective in producing 1.5 times the amount of Smn protein in an SMA patient fibroblast cell compared to the amount produced from the DMSO vehicle control. An EC1.5× for Smn protein expression between >3 μM and ≤10 μM is indicated by one star (*), an EC1.5× between >1 μM and ≤3 μM is indicated by two stars (**), an EC1.5× between >0.3 μM and ≤1 μM is indicated by three stars (***) and an EC1.5x≤0.3 μM is indicated by four stars (****).
For compounds of Formula (I) or a form thereof disclosed herein, Table 10 provides the maximum fold (Fold) increase of Smn protein that was obtained from the 7-point concentration data generated for each test compound according to the procedure of Biological Example 7. A maximum fold increase of ≤1.2 is indicated by one star (*), a fold increase between >1.2 and ≤1.35 is indicated by two stars (**), a fold increase between >1.35 and ≤1.5 is indicated by three stars (***), a fold increase between >1.5 and ≤1.65 is indicated by four stars (****) and a fold increase >1.65 is indicated by five stars (*****).

| Compound | EC (1.5-fold increase) [1] [µM] | EC1.5x for Smn protein expression [2] | maximum fold (Fold) increase of Smn protein [2] |
| --- | --- | --- | --- |
| Cc1cn2nc(-c3cc(=O)n4cc(N5C[C@@H](C)N[C@@H](C)C5)ccc4n3)cc2c(C)n1 [Compound 131, 7-[(3R,5S)-3,5-dimethylpiperazin-1-yl]-2-(4,6-dimethylpyrazolo[1,5-a]pyrazin-2-yl)-4H-pyrido[1,2-a]pyrimidin-4-one] | < 0.1 | ** (an EC1.5× between >1 μM and ≤3 μM is indicated by two stars (**)) | *** (a fold increase between >1.35 and ≤1.5 is indicated by three stars (***)) |
| Cc1cn2nc(-c3cc(=O)n4cc(N5CCCNCC5)ccc4n3)cc2c(C)n1 [Compound 132, 7-(1,4-diazepan-1-yl)-2-(4,6-dimethylpyrazolo[1,5-a]pyrazin-2-yl)-4H-pyrido[1,2-a]pyrimidin-4-one] | < 0.1 | **** (an EC1.5x≤0.3 μM is indicated by four stars (****)) | ***** (a fold increase >1.65 is indicated by five stars (*****)) |
| COc1cc(-c2cc(=O)n3cc(N4CCNCC4)ccc3n2)cc(F)c1OC [Compound 145, 2-(3-fluoro-4,5-dimethoxyphenyl)-7-(piperazin-1-yl)-4H-pyrido[1,2-a]pyrimidin-4-one] | 1 to 3 |  | * (A maximum fold increase of ≤1.2 is indicated by one star (*)) |
| Cc1nc2cc(-c3cc(=O)n4cc(N5CCN[C@@H](C)C5)ccc4n3)ccc2o1 [Compound 156, 2-(2-methyl-1,3-benzoxazol-5-yl)-7-[(3S)-3-methylpiperazin-1-yl]-4H-pyrido[1,2-a]pyrimidin-4-one] | 0.3 to 1 |  | *** (a fold increase between >1.35 and ≤1.5 is indicated by three stars (***)) |
| COc1ccc(-c2cc(=O)n3cc(N4CCNCC4)cc(C)c3n2)cc1OC [Compound 160, 2-(3,4-dimethoxyphenyl)-9-methyl-7-(piperazin-1-yl)-4H-pyrido[1,2-a]pyrimidin-4-one] | < 0.1 | *** (an EC1.5× between >0.3 μM and ≤1 μM is indicated by three stars (***)) | *** (a fold increase between >1.35 and ≤1.5 is indicated by three stars (***)) |
| COc1ccc(-c2cc(=O)n3cc(NC4CCNCC4)ccc3n2)cc1OC [Compound 187, 2-(3,4-dimethoxyphenyl)-7-(piperidin-4-ylamino)-4H-pyrido[1,2-a]pyrimidin-4-one] | 1 to 3 |  | ** (a fold increase between >1.2 and ≤1.35 is indicated by two stars (**)) |
| Cn1cc(-c2cc(=O)n3cc(N4CCNCC4)ccc3n2)cn1 [Compound 192, 2-(1-methyl-1H-pyrazol-4-yl)-7-(piperazin-1-yl)-4H-pyrido[1,2-a]pyrimidin-4-one] | 1 to 3 | ** (an EC1.5× between >1 μM and ≤3 μM is indicated by two stars (**)) | ***** (a fold increase >1.65 is indicated by five stars (*****)) |
| COc1ccc(-c2cc(=O)n3cc(N4CCC(N)CC4)ccc3c2)cc1F [Compound 201, 7-(4-aminopiperidin-1-yl)-2-(3-fluoro-4-methoxyphenyl)-4H-quinolizin-4-one] | < 0.1 | *** (an EC1.5× between >0.3 μM and ≤1 μM is indicated by three stars (***)) | *** (a fold increase between >1.35 and ≤1.5 is indicated by three stars (***)) |
| COc1ccc(-c2cc(=O)n3cc(N4CCC(N(C)C)CC4)ccc3c2)cc1F [Compound 203, 7-[4-(dimethylamino)piperidin-1-yl]-2-(3-fluoro-4-methoxyphenyl)-4H-quinolizin-4-one] | 1 to 3 |  | * (A maximum fold increase of ≤1.2 is indicated by one star (*)) |
| COc1ccc(-c2cc(=O)n3cc(OC4CCN(C)CC4)ccc3n2)cc1OC [Compound 235, 2-(3,4-dimethoxyphenyl)-7-[(1-methylpiperidin-4-yl)oxy]-4H-pyrido[1,2-a]pyrimidin-4-one] | 0.3 to 1 | ** (an EC1.5× between >1 μM and ≤3 μM is indicated by two stars (**)) | **** (a fold increase between >1.5 and ≤1.65 is indicated by four stars (****)) |

— patent US11753407B2, “Compounds for treating spinal muscular atrophy” (PTC Therapeutics, Inc., priority 2012, dated 2023)
